From patent US11071790B2, “Method for efficient delivery of therapeutic molecules in vitro and in vivo” (Massachusetts Eye and Ear Infirmary, priority 2014, dated 2021)
No end group written: not given here.

Assays:
[1] = system: cochlear hair cells and supporting cells of Rosa-tdTomato f/f mouse; assay: Cre delivery into Rosa-tdTomato mouse cochlea in vivo (tdT labeling); conditions: for tdT-labeled hair cells: near the injection site (base turn of cochlea)
Procedure: FIGS. 10A and 10B show the in vivo delivery of Cre recombinase to hair cells in the mouse inner ear. FIG. 10A: The scala media (cochlear duct) of P0 floxP-tdTomato mice (n=4) were injected with 0.3 μL of 23 μM (−30)GFP-Cre in 50% RNAiMAX or with RNAiMAX alone (control). […] Red=tdTomato; green=Myo7a; white=Sox2; blue=DAPI. Yellow brackets indicate the outer hair cell (OHC) region. […] Red=tdTomato; green=Esp, white=Sox2; blue=DAPI, Scale bars: 10 μm.
FIGS. 11A-11E show the high efficiency of protein delivery mediated by aurein in the inner ear in vivo. […] FIG. 11E: In Opti-MEM injected control mice no tdT labeling was detected in any inner ear cells. Scale bars: 10 μm.
The use of (−30)-GFP protein and a new positively charged (+36)-GFP protein to carry Cre, (−30)-GFP-Cre and (+36)-GFP-Cre, was tested for injection into mouse cochlea in vivo. The mouse used was Rosa-tdTomato^f/f in which functional Cre activity in the nuclei results in cells being labeled with tdT (red). It was shown that both (−30)-GFP-Cre and (+36)-GFP-Cre injections led to tdT expression in the cochlear hair cells.
It was next tested whether Aurein, an antimicrobial peptide, in combination with s-GFP, can serve as an effective carrier to deliver functional proteins into mouse inner ear cell types with high efficiency. (+36)-GFP-aurein-Cre was injected with different concentrations into P3 Rosa-tdT mouse inner ear by cochleostomy in vivo. The tissues were harvested 5 days later for immunolabeling to identify tdT^+ inner ear cell types. […] At 22.5 μM, 58% of OHC and 75% of IHC, as well as 8% of SC were tdT^+. At the highest 50 μM, 96% of OHC, 88% of IHC and 19% of SC were tdT^+. Some spiral ganglion neurons were also tdT^+ at 22.5 and 50 μM (FIGS. 11A-11E and FIG. 12).

BSR.LNL.tdTomato cells [2] = assay: primary screen for cytosolic delivery of Cre recombinase (fluorescence image analysis); type: cell-based, hamster
Procedure: Initial screen of 20 peptide-(+36 GFP)-Cre conjugated proteins. Cytosolic Cre delivery results in recombination and tdTomato expression. The percentage of tdTomato positive cells was determined by fluorescence image analysis. […] Cells were washed and supplanted with full DMEM and incubated for 48 h. Error bars represent the standard deviation of three independent biological replicates.
BSR.LNL.tdTomato cells were plated at 10,000 cells per well in black 384-well plates (Aurora Biotechnologies). […] Following incubation, the cells were washed three times with PBS+20 U/mL heparin. The cells were incubated a further 48 h in serum-containing media. Cells were fixed in 3% paraformaldehyde and stained with Hoescht 33342 nuclear dye. Images were acquired on an ImageXpress Micro automated microscope (Molecular Devices) using a 4× objective (binning 2, gain 2), with laser- and image-based focusing (offset −130 μm, range ±50 μm, step 25 μm). Images were exposed for 10 ms in the DAPI channel (Hoechst) and 500 ms in the dsRed channel (tdTomato). Image analysis was performed using the cell-scoring module of MetaXpress software (Molecular Devices). All nuclei were detected with a minimum width of 1 pixel, maximum width of 3 pixels, and an intensity of 200 gray levels above background. […] In total, nine images were captured and analyzed per well, and 16 wells were treated with the same fusion protein. The primary screen was completed in biological triplicate.
Because Cre recombinase must enter the cell, escape endosomes, enter the nucleus, and catalyze recombination to generate tdTomato fluorescence, this assay reflects the availability of active, non-endosomal recombinase enzyme that reaches the nucleus.
The reporter BSR.LNL.tdTomato cells were incubated with 250 nM of each peptide-(+36 GFP)-Cre protein in serum-free media.

BSR.LNL.tdTomato cells [3] = assay: ATP-dependent cell viability assay (CELLTITER-GLO); conditions: 1 μM, 48 h after treatment
Procedure: (§1) FIGS. 15A, 15B are graphs showing the efficacy and toxicity of recombinant expression fusions of aurein 1.2 (“E”) and citropin 1.3 (“U”). […] The percentage of tdTomato positive cells was determined by flow cytometry. Protein fusions were delivered at 125 nM, 250 nM, 500 nM, and 1 μM. […] Protein fusions were delivered at 125 nM, 250 nM, 500 nM, and 1 μM. […] Cells were treated with 250 nM protein for 4 h in serum-free media. Cells were washed and supplanted with full DMEM and incubated for 48 h. Error bars represent the standard deviation of three independent biological replicates.
(§2) Uptake and delivery assays for Cre fusion proteins were performed as previously described (Cronican, J. J.; et al. ACS Chemical Biology 2010, 5, 747). Briefly, proteins were diluted in serum-free DMEM and incubated on the cells in 48-well plates for 4 h at 37° C. Following incubation, the cells were washed three times with PBS+20 U/mL heparin. The cells were incubated a further 48 h in serum-containing media prior to trypsinization and analysis by flow cytometry. […] Toxicity for alanine scan mutational analysis was determined with LIVE/DEAD fixable far-red dead cell stain (Life Technologies) with 635 nm laser and 670/30 nm filter.
Next, the toxicity of each fusion protein was evaluated at a range of concentrations (125 nM to 1 μM) using an ATP-dependent cell viability assay at 48 h after treatment.

[4] = system: cochlear hair cells of Rosa26-tdTomato mice; assay: in vivo delivery of Cre recombinase into mouse neonatal cochlea (tdTomato recombination)
Procedure: 0.4 μL of 50 μM+36 GFP-Cre or aurein 1.2-+36 GFP-Cre were injected into the scala media. […] Inner hair cells (IHC), outer hair cells (OHC) and supporting cells in the sensory epithelium (SE) were imaged for the presence of tdTomato, which is only expressed following Cre-mediated recombination. Hair cells were labeled with antibodies against the hair-cell marker Myo7a.
P1-2 Gt(ROSA)26Sor^tm14(CAG-tdTomato)Hze mice were used for aurein 1.2-+36-GFP-Cre and +36-GFP-Cre injection. The Rosa26-tdTomato mice were from the Jackson Laboratory. […] Mice were anesthetized by hypothermia on ice. Cochleostomies were performed by making an incision behind the ear to expose the cochlea. Glass micropipettes held by a micromanipulator were used to deliver the complex into the scala media, which allows access to inner ear hair cells. […]
To quantify the number of tdTomato positive cells after aurein 1.2-+36-GFP-Cre and +36-GFP-Cre, we counted the total number of inner and outer hair cells in a region spanning 100 μm in the apex, middle, and base turn of the cochlea.
Anesthetized postnatal day 2 (P2) mice were injected with 0.4 μL of 50 μM+36 GFP-Cre or aurein 1.2-+36 GFP-Cre solutions in the scala media to access the cochlear cells. […] Both the hair cells (Myo7a+) and supporting cells (Myo7a−) were evaluated for td Tomato signal.

[5] = system: glucocorticoid receptor (GR-mCherry) in HeLa cells; assay: GR-mCherry translocation assay; type: cell-based; conditions: 1 μM, 30 min
Procedure: One day prior to transfection 10,000 HeLa cells in 200 μL of DMEM (10% FBS, 1× Pen-Strep) were plated into single wells of a 96-well MATRICAL glass bottom microplate (MGB096-1-2-LG-L) and allowed to adhere overnight. The following day, cells were transfected with GRmCherry using LIPOFECTAMINE® 2000 technologies. Following transfection, cells were allowed to recover overnight in DMEM (+10% FBS). The following day, cells were treated with dexamethasone (Dex) or 1 μM Dex-protein conjugate in the presence or absence of inhibitor diluted into DMEM (without phenol red, +300 nM Hoescht33342). After 30 min, cells were washed twice with 200 μL of HEPES-Krebs-Ringer's (HKR) buffer (140 mM NaCl, 2 mM KCl, 1 mM CaCl2, 1 mM MgCl2, and 10 mM HEPES at pH 7.4), after which 100 μL of HKR buffer was overlaid onto the cells and images were acquired on a Zeiss Axiovert 200M epifluorescence microscope outfitted with Ziess AxiocammRM camera and an EXFO-Excite series 120 Hg arc lamp. The translocation ratio (the ratio of median […] intensity in the nuclear and surrounding regions) for individual cells was measured using CELLPROFILER® as described 36. […]
Although endosomal escape is widely considered to be the major bottleneck of cationic protein delivery (Sahay, G.; et al. Nature Biotechnology 2013, 31, 653), few assays quantify the ability of proteins to escape endosomes on a single-cell basis.

BSR.LNL.tdTomato cells [6] = assay: Cre delivery assay of recombinant fusion proteins (flow cytometry); type: cell-based, hamster; conditions: 250 nM, fused to +36 GFP-Cre
Procedure: as §1
The percentage of tdTomato positive cells was determined by flow cytometry. […] Cells were washed and supplanted with full DMEM and incubated for 48 h.
as §2

## (−30)-GFP-Cre: negatively supercharged GFP fused to Cre recombinase, SEQ ID NO: 4
[1]
  tdT-labeled hair cells: ~30%
[1]; ten days after delivery, 23 μM in 50% RNAiMAX
  stereocilia of tdTomato-positive outer hair cells: intact espin (Esp)-expressing stereocilia of tdTomato-positive outer hair cells were present

## +36 GFP-Cre: superpositively charged GFP fused to Cre recombinase, SEQ ID NO: 1
[1]; 50 μM
  tdT labeling of cochlear cells: very few IHC and HC were labeled with tdT
[1]
  tdT-labeled hair cells: ~30%
BSR.LNL.tdTomato cells [2]; 250 nM protein with 100 μM chloroquine (positive control)
  recombined cells: 48%
BSR.LNL.tdTomato cells [2]; 250 nM protein, 4 h serum-free, 48 h
  cells expressing tdTomato (recombined cells): 4.5%
BSR.LNL.tdTomato cells [3]
  viable cells: 85%
[4]; apex, 50 μM
  Cre-mediated recombination in inner hair cells (IHC): 4.4%

## Arg8^Dex: dexamethasone-labeled canonical cell permeable peptide Arg8, SEQ ID NO: 102 (RRRRRRRR; also: dexamethasone label, site not given here)
[5]
  nuclear-to-cytoplasm translocation ratio (TR): 1.63

## GLFDIIKKIAEAF [S12A]
BSR.LNL.tdTomato cells [6]
  overall recombination efficiency of aurein 1.2 variants: potentially improved overall recombination efficiency

## GLFDIIKKIAESF (listed as Litoria aurea) [aurein 1.2]
[4]; live mice
  potency of Cre delivery into cochlear hair cells when fused with aurein 1.2 versus absence of the peptide: > 20 fold

## GLFDIIKKVASVIGGL [citropin 1.3]
BSR.LNL.tdTomato cells [2]; 250 nM sortase conjugate of +36 GFP-Cre
  level of recombination in the primary screen: moderate level of recombination

## GLFDIIKRIAESF [K8R]
BSR.LNL.tdTomato cells [6]
  overall recombination efficiency of aurein 1.2 variants: potentially improved overall recombination efficiency
